Assay results reported in PMC5650142, “GPR40 partial agonists and AgoPAMs: Differentiating effects on glucose and hormonal secretions in the rodent” (PLoS ONE, 2017).
Values joined by “and” are separate entries in the source; they are usually repeats but may differ in a detail not shown here. Identical values can stand only once. Like-named read-outs stand apart in the source and are kept apart here.

How the values were obtained:
rat GPR40 = biological target: T1, rat GPR40 (Rattus norvegicus, UniProt Q8K3T4); test: Rat GPR40 IP1 accumulation assay; type: cell-based
T1 construct: expressed in transfected cells; host or cells: CHO-K1 (methods)
T1 sequence (Q8K3T4 whole entry): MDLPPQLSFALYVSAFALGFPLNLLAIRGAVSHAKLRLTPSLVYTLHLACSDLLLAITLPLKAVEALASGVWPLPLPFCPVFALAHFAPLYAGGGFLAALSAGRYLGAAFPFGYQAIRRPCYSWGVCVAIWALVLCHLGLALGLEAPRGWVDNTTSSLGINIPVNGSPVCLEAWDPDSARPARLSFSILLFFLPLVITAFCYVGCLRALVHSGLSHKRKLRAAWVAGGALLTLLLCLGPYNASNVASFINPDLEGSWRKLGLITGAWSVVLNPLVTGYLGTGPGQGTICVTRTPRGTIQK
Experimental: (§1) Stable cell lines expressing human GPR40 (hGPR40/HEK293), mouse GPR40 (mGPR40/CHO-K1), and rat GPR40 (rGPR40/CHO-K1) were cultured in DMEM media supplemented with 10% FBS, glutamine, non-essential amino acids, and penicillin/streptomycin. hGPR40/HEK293 & mGPR40/CHO-K1 cell media was supplemented with […] G418 (Life Technologies), while rGPR40/CHO-K1 cells were grown in […] blasticidin plus […] hygromycin (Life Technologies). Cell stocks were maintained and grown in a sub-confluent state using standard cell culture procedures. The day before the experiment, the cells were harvested with non-enzymatic cell dissociation buffer and re-suspended in DMEM supplemented with 10% FBS, glutamine, non-essential amino acids, penicillin/streptomycin at 0.15, 0.2 and 0.3 million cells per ml for human, mouse, and rat GPR40, respectively. […] The seeded plates were incubated overnight at 37 C.
(§2) On the day of the experiment, the growth media was removed from the assay by gently patting the assay plates on an absorbent sheet and 10 μl of IP1 stimulation buffer (Cis Bio IP-one Tb HTRF kit) supplemented with 50 mM LiCl is added to each well. Test compounds dissolved in DMSO were serially diluted in ½ log increments starting from 2 mM or 0.2 mM and 50 nl of the compound dilution was acoustically added to each well (final starting concentration 10 μM or 1 μM). Plates were then incubated for 60 minutes at room temperature and 10 μl of detection buffer (prepared as described in the Tb kit) is added to each well. The plates are then incubated one additional hour at room temperature. […] For each assay, a standard curve plate in which IP1 is titrated is also included. […] The percent activity at each concentration of test compound is determined using 0% activation (basal activity) determined in those wells that contain DMSO alone, while 100% activity is determined in wells that contained a concentration of a partial allosteric agonist know to activate GPR40. The % activity is then plotted versus the concentration of test compound and the dose response curve fitted to a standard 4-parameter non-linear regression model using a custom in-house developed software package (Merck & Co., Inc., MRL, Kenilworth, NJ, USA). Maximal % activity and EC50 are then determined for each test compound.

mouse GPR40 = biological target: T2, mouse GPR40 (Mus musculus, UniProt Q76JU9); test: Mouse GPR40 IP1 accumulation assay; type: cell-based
T2 construct: expressed in transfected cells; host or cells: CHO-K1 (methods)
T2 sequence (Q76JU9 whole entry): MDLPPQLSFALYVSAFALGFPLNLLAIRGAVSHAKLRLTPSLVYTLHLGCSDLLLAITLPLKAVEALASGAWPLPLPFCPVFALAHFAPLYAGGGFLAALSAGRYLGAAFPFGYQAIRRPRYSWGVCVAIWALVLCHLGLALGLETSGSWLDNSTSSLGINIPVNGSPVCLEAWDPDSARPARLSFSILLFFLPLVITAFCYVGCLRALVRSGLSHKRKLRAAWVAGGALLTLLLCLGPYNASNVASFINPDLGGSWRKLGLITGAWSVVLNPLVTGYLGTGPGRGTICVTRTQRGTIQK
Experimental: as §1, §2

human GPR40 [1] = biological target: T3, human GPR40 (Homo sapiens, UniProt O14842); test: GPR40 binding assay, partial agonist tracer [3H]L358; parameters: expressed in transfected cells; host or cells: CHO / CHO-K1 cells, membrane preparation; conditions: radioligand L-001533358;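 for %Bound: 100% is tracer binding with DMSO alone and 0% is full displacement by a standard compound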
T3 sequence (O14842 whole entry): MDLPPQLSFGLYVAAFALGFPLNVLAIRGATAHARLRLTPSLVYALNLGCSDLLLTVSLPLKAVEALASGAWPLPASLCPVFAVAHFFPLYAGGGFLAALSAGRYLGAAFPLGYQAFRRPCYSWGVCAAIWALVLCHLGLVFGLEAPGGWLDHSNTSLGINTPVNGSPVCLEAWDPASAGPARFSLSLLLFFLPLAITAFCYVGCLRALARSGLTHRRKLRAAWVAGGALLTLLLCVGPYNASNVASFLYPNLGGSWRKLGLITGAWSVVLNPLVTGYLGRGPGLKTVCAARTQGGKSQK
Experimental: Two small molecule tracers, the partial agonist [3H][…] and the AgoPAM [3H]25, are used to measure compound affinity at each site as described previously. Because of the allosteric coupling of the two sites and the nature of the assay, addition of a compound will either displace (binds to same site) or augment (binds to allosterically coupled site) radiotracer. Membranes expressing GPR40 were prepared from CHO cells stably expressing human GPR40. […] Sigma P8830) and were homogenized in 50 ml aliquots with a motor-driven glass Dounce homogenizer, 15 strokes at 1900 rpm on wet ice, repeating once. Homogenates were centrifuged at 2200 rpm for 10 min at 4°C. Supernatants were carefully removed and pooled. Homogenization and centrifugation were repeated until the debris pellet was translucent to maximize membrane recovery. Supernatants were then centrifuged at […] rpm for 20 min. at 4°C. […] Protein concentration was determined by Pierce BCA kit. […] The beads and membrane mixture is then vigorously mixed for 30 minutes at room temperature prior to addition to the assay. […] Next, 15 μl of the radioligand and 35 μl of the beads/membranes solution is added to each well. The assay plates are then sealed and incubated for 30 minutes at room temperature on an orbital shaker. The plates are allowed to settle for 16 hours and then counted on a TopCount scintillation counter (PE). […] Maximal % bound and IC50 are then determined for each test compound. 5 μg/well membrane together with 200 μg/well of PVT WGA SPA beads (GE #RPNG-0001) were suspended in a white 96 well plate with a final concentration of 50 μl/well in assay buffer (50 mM Tris, 10 mM MgCl2, and 2 mM EDTA). […] The plate is briefly mixed and incubated for 3-18 h at room temperature, before it is read on a MicroBeta plate counter (Perkin Elmer, MS, USA).

human GPR40 [2] = biological target: T3, human GPR40; test: Human GPR40 IP1 accumulation assay; type: cell-based; parameters: expressed in transfected cells
Experimental: as §1, §2

[3] = maximal % activity vs in-house partial agonist control

## COc1ccc(F)c(-c2ccc(COc3cccc([C@@H](CC(=O)O)C4CC4)c3)cc2C2=CCCC2(C)C)c1 [AM-1638, reference compound]
Rat GPR40; dose 1.00E-06 M
  Rat GPR40 Receptor Activation (%): 370%
Rat GPR40; dose 1.50E-11 M
  Rat GPR40 Receptor Activation (%): -18%
Rat GPR40; dose 1.56E-08 M
  Rat GPR40 Receptor Activation (%): 132%
Rat GPR40; dose 2.44E-10 M
  Rat GPR40 Receptor Activation (%): 11%
Rat GPR40; dose 2.50E-07 M
  Rat GPR40 Receptor Activation (%): 361%
Rat GPR40; dose 3.91E-09 M
  Rat GPR40 Receptor Activation (%): 23%
Rat GPR40; dose 4.00E-12 M
  Rat GPR40 Receptor Activation (%): -6%
Rat GPR40; dose 6.10E-11 M
  Rat GPR40 Receptor Activation (%): 2%
Rat GPR40; dose 6.25E-08 M
  Rat GPR40 Receptor Activation (%): 275%
Rat GPR40; dose 9.77E-10 M
  Rat GPR40 Receptor Activation (%): 18%
Rat GPR40; individual replicates (n)
  Rat GPR40 Functional Assay %Act: 380% and 366%
Rat GPR40; individual replicates (n), read-out: Rat GPR40 Functional Assay EC50
  EC50: 26 nM and 56 nM
Rat GPR40; [3]
  Efficacy (% Activation), Rat: (373%)
Rat GPR40; mean ± SD, n = 2–20, IP accumulation, read-out: Potency [EC50, nM] ± SD, Rat
  EC50: 41 ± 21 nM
Mouse GPR40; dose 1.00E-06 M
  Mouse GPR40 Receptor Activation (%): 394%
Mouse GPR40; dose 1.50E-11 M
  Mouse GPR40 Receptor Activation (%): -7%
Mouse GPR40; dose 1.56E-08 M
  Mouse GPR40 Receptor Activation (%): 156%
Mouse GPR40; dose 2.44E-10 M
  Mouse GPR40 Receptor Activation (%): 2.81%
Mouse GPR40; dose 2.50E-07 M
  Mouse GPR40 Receptor Activation (%): 318%
Mouse GPR40; dose 3.91E-09 M
  Mouse GPR40 Receptor Activation (%): 67%
Mouse GPR40; dose 4.00E-12 M
  Mouse GPR40 Receptor Activation (%): -8.43%
Mouse GPR40; dose 6.10E-11 M
  Mouse GPR40 Receptor Activation (%): 3.63%
Mouse GPR40; dose 6.25E-08 M
  Mouse GPR40 Receptor Activation (%): 254%
Mouse GPR40; dose 9.77E-10 M
  Mouse GPR40 Receptor Activation (%): 19%
Mouse GPR40; individual replicates (n)
  Mouse GPR40 Functional Assay %Act: 406% and 397%
Mouse GPR40; individual replicates (n), read-out: Mouse GPR40 Functional Assay EC50
  EC50: 44 nM and 28 nM
Mouse GPR40; [3]
  Efficacy (% Activation), Mouse: (402%)
Mouse GPR40; mean ± SD, n = 2–20, IP accumulation, read-out: Potency [EC50, nM] ± SD, Mouse
  EC50: 36 ± 11 nM
Human GPR40 [1]; dose 0.318285 nM
  % Bound Normalized to 100: 102.20%
  %Bound: 108.18%
Human GPR40 [1]; dose 1.00578 nM
  % Bound Normalized to 100: 103.34%
  %Bound: 109.31%
Human GPR40 [1]; dose 3.17827 nM
  % Bound Normalized to 100: 130.10%
  %Bound: 136.07%
Human GPR40 [1]; dose 10.0433 nM
  % Bound Normalized to 100: 137.50%
  %Bound: 143.47%
Human GPR40 [1]; dose 31.7369 nM
  % Bound Normalized to 100: 182.19%
  %Bound: 188.17%
Human GPR40 [1]; dose 100.289 nM
  % Bound Normalized to 100: 189.31%
  %Bound: 195.29%
Human GPR40 [1]; dose 316.912 nM
  % Bound Normalized to 100: 199.27%
  %Bound: 205.25%
Human GPR40 [1]; dose 1001.44 nM
  % Bound Normalized to 100: 201.84%
  %Bound: 207.81%
Human GPR40 [1]; dose 3164.56 nM
  % Bound Normalized to 100: 204.40%
  %Bound: 210.37%
Human GPR40 [1]; dose 10000 nM
  % Bound Normalized to 100: 189.59%
  %Bound: 195.57%
Human GPR40 [2]; dose 2.00E-06 M
  Human GPR40 Receptor Activation (%): 237%
Human GPR40 [2]; dose 2.00E-07 M
  Human GPR40 Receptor Activation (%): 246%
Human GPR40 [2]; dose 2.00E-08 M
  Human GPR40 Receptor Activation (%): 186%
Human GPR40 [2]; dose 2.00E-09 M
  Human GPR40 Receptor Activation (%): 90%
Human GPR40 [2]; dose 2.00E-10 M
  Human GPR40 Receptor Activation (%): 5.57%
Human GPR40 [2]; dose 6.00E-07 M
  Human GPR40 Receptor Activation (%): 204%
Human GPR40 [2]; dose 6.00E-08 M
  Human GPR40 Receptor Activation (%): 223%
Human GPR40 [2]; dose 6.00E-09 M
  Human GPR40 Receptor Activation (%): 129%
Human GPR40 [2]; dose 6.00E-10 M
  Human GPR40 Receptor Activation (%): 27%
Human GPR40 [2]; dose 6.00E-11 M
  Human GPR40 Receptor Activation (%): -7%
Human GPR40 [2]; individual replicates (n)
  HUMAN GPR40 Functional Assay %Act: 245% and 240% and 164% and 211% and 215% and 163%
Human GPR40 [2]; individual replicates (n), read-out: HUMAN GPR40 Functional Assay EC50
  EC50: 3.7 nM and 4.2 nM and 7.3 nM and 1.3 nM and 2.4 nM and 3.6 nM
Human GPR40 [2]; [3]
  Efficacy (% Activation), Human: (200%)
Human GPR40 [2]; mean ± SD, n = 2–20, IP accumulation, read-out: Potency [EC50, nM] ± SD, Human
  EC50: 3.7 ± 1.9 nM
